Blank lines part the entries; values can stand above or below the compound they belong to.
Experiments:
H1299 lung cancer cells = assay: Cell viability (MTT assay) in H1299 cells; type: cell-based, human; conditions: 0.5-10 μM, 3 days, MTT (FIG. 9-12)
Description: (§1) Human lung cancer cell lines (H1299, H460, A549, H226B, and PC9), breast cancer cell line (MDA-MB-231), liver cancer cell line (Hep3B), kidney cancer cell line (786-0), prostate cancer cell lines (DU145 and PC-3), and mouse lung cancer cell line (Lewis Lung Carcinoma, LLC) were purchased from ATCC (American Type Culture Collection) or obtained from Dr. John V. Heymach of MD Anderson Cancer Center, USA. The human head and neck cancer cell line (UMSCC38) was obtained from Dr. Jeffrey N. Myers (MD Anderson Cancer Center, USA). Human colon cancer cell lines (HCT116 and HT-29) and glioblastoma cell line (U87MG) were obtained from Professor Sang Kook Lee (Seoul National University College of Pharmacy). The human kidney cancer cell line (Caki-1), and gastric cancer cell line (SNU-638) were purchased from the Korean Cell Line Bank. The chemotherapy-resistant cells [paclitaxel-resistant H460 cells (H460/PcR), paclitaxel-resistant H226B cells (H226B/PcR), cisplatin-resistant H1299 cells (H1299/CsR), pemetrexed-resistant H1299 cells (H1299/PmR)] and molecularly targeted anticancer therapy-resistant cells [erlotinib-resistant PC9 cells (PC9/ER)] were constructed by treating the respective anti-cancer drugs for more than three months. H1299, H460, H226B, PC9, Hep3B, 786-0, DU145, PC-3, HCT116, HT-29, SNU-638, chemotherapeutic resistant cells, and molecularly targeted anticancer therapy-resistant cells were cultured in RPMI 1640 media containing 10% fetal bovine serum (FBS) and antibiotics at 37° C. under 5% CO2 conditions, while MDA-MB-231, UMSCC38, U87MG, Caki-1 were cultured in DMEM media containing 10% FBS and antibiotics at 37° C. under 5% CO2 conditions. Cells were passaged 1-2 times per week.
(§2) The cancer cell lines were seeded in a 96-well plate at a density of 2×10^3 cells per well and cultured for 24 hours to allow the cells to attach. The cells were then treated with diluted drugs in media for 3 days and cell viability was assessed using MTT assay or crystal violet (CB) assay. For the MTT assay, MTT solution dissolved in PBS was added to achieve a final concentration of 500 μg/mL and incubated for 2-4 hours, after which the medium was removed and the formed formazan was dissolved in 100% DMSO, followed by measuring the absorbance at 570 nm. For the CB assay, the cultured cells were fixed with 100% methanol, stained with a 0.025% crystal violet solution, dissolved in 1% SDS solution, and the absorbance was measured at 570 nm. Cell viability was calculated as the percentage of absorbance change in drug-treated group compared to vehicle (DMSO) treated control group.

lung cancer cell = assay: Cancer cell survival inhibitory activity (MTT assay) of EV501 to EV509; type: cell-based; conditions: 0.5 μM (lowest concentration), MTT assay (FIG. 18)
Procedure: as §2

[1] = system: Hsp70 protein and Hsp70/Hsp90 client proteins (Akt, Src, and MEK); assay: Western blot of Hsp70 and client proteins in lung cancer cells; type: cell-based, human; conditions: for expression of Hsp70 protein and Hsp70/Hsp90 client proteins (Akt, Src, and MEK): H1299 cells, up to 250 nM, 2 days (FIG. 17)
Description: as §1
The cells treated with the drug were treated with RIPA lysis buffer [50 mM Tris-HCl (pH 7.4), 150 mM NaCl, 1 mM EDTA, 0.25% sodium deoxycholate, 1% Triton X-100, 100 mM NaF, 5 mM Na3VO4, 1 mM PMSF, 1 μg/mL aprotinin, 1 μg/mL leupeptin, and 1 μg/mL pepstatin], followed by incubation on ice for 10 minutes and centrifugation at 13,000 rpm for 15 minutes to extract proteins. The proteins were quantified by BCA assay and equal amounts of proteins were separated by 8-10% SDS-PAGE. The separated proteins were transferred to a PVDF membrane, and the areas of the membrane not transferred with protein were blocked by incubating the membrane in 5% skim milk solution or 3% BSA solution diluted in TBST at room temperature for 1 hour. The membrane was then incubated in a primary antibody solution diluted 1:1,000 in 3% BSA at 4° C. for more than 12 hours. The primary antibody used was either anti-Hsp70 or anti-actin, with the anti-Hsp70 antibody obtained from Enzo Life Science and the actin antibody obtained from Santa Cruz Biotechnology. After incubation, the membrane was washed for 1 hour while changing TBST several times, and then incubated for 1 hour at room temperature with a secondary antibody (GeneTex) diluted 1:5,000 in 5% skim milk solution. After incubation, the membrane was washed for 1 hour while changing TBST several times, and then treated with an enhanced chemiluminescence (ECL) solution. The expression of Hsp70 or Actin protein was detected using LAS4000.

cancer cell = assay: Cancer cell survival inhibitory activity (crystal violet assay); type: cell-based; conditions: crystal violet assay (FIG. 19)
Procedure: as §2

lung cancer cells = assay: Anchorage-independent (soft agar) colony formation; type: cell-based; conditions: soft agar (FIG. 20)
Procedure: Before the experiment, a 1% agar solution made with low-melting agar was placed in a 24-well plate and hardened at room temperature to create a bottom agar. The cells were diluted with medium to seed 2×10^3 cells per well in a 24-well plate. Then, it was mixed with a 1% agar solution to create a final 0.4% agar solution, which was then solidified at room temperature in the plate containing the bottom agar. Medium containing the drug was added on top of the cells mixed in the agar and cultured for 1-3 weeks at 37° C. in a 5% CO2 condition, after which the formed colonies were stained with an MTT solution of 250-500 μg/mL and counted. The colony formation inhibitory effect of the drug was calculated by expressing the change in colony numbers in the drug-treated group compared to the vehicle (DMSO) treated control group as a percentage.

[2] = system: various lung cancer cell lines and chemotherapeutic agent-resistant lung cancer cell lines; assay: Cell viability in lung cancer and chemotherapeutic drug-resistant lung cancer cell lines; type: cell-based, human; conditions: lung cancer and chemotherapeutic agent-resistant lung cancer cell lines (FIG. 13, 15)
Description: (§3) Human lung cancer cell lines (H1299, H460, A549, H226B, and PC9), breast cancer cell line (MDA-MB-231), liver cancer cell line (Hep3B), kidney cancer cell line (786-0), prostate cancer cell lines (DU145 and PC-3), and mouse lung cancer cell line (Lewis Lung Carcinoma, LLC) were purchased from ATCC (American Type Culture Collection) or obtained from Dr. John V. Heymach of MD Anderson Cancer Center, USA. The human head and neck cancer cell line (UMSCC38) was obtained from Dr. Jeffrey N. Myers (MD Anderson Cancer Center, USA). […]
as §2, with “Cell viability was calculated as the percentage of absorbance change in drug-treated group compared to vehicle (DMSO) treated control group.” left out

[3] = system: various lung cancer cells and chemotherapeutic drug-resistant lung cancer cell lines; assay: Anchorage-dependent colony formation in lung cancer and drug-resistant lung cancer cell lines; type: cell-based, human; conditions: 0.5 μM (FIG. 14, 16)
Description: as §3, with “USA). Human colon cancer cell lines (HCT116 and HT-29) and glioblastoma cell line (U87MG) were obtained from Professor Sang Kook Lee (Seoul National University College of Pharmacy). The human kidney cancer cell line (Caki-1), and gastric cancer cell line (SNU-638) were purchased from the Korean Cell Line Bank.” for “USA).”
Cancer cell lines were seeded in a 24-well or 6-well plate at 100-250 cells per well and allowed to attach, followed by treatment with drugs diluted in media and cultured for 2-3 weeks. Formed colonies were stained with crystal violet and counted. The drug's colony formation inhibitory effect was calculated as the percentage of colony number change in the drug-treated group compared to the vehicle (DMSO)-treated control group.

Structure (SMILES): COc1cccc2c1C(=O)N1CCc3c([nH]c4ccccc34)C1N2C (stereo not drawn) [EV309]
lung cancer cell death (cell viability) (H1299 lung cancer cells): excellent effects

Structure (SMILES): CN1c2cccc(Cl)c2C(=O)N2CCc3c([nH]c4ccccc34)C21 (stereo not drawn) [EV308]
lung cancer cell death (cell viability) (H1299 lung cancer cells): excellent effects

Structure (SMILES): COc1ccc2[nH]c3c(c2c1)CCN1C(=O)c2ccccc2N(C)C31 (stereo not drawn) [EV403]
lung cancer cell death (cell viability) (H1299 lung cancer cells): excellent effects

Structure (SMILES): C=CCN1c2ccccc2C(=O)N2CCc3c([nH]c4c([N+](=O)[O-])cc([N+](=O)[O-])cc34)C21 (stereo not drawn) [EV503]
inhibition at 0.5 µM (lung cancer cell): > 50%
melting point: 229 to 231 °C

melting point: 186 to 188 °C
Structure (SMILES): C=CCN1c2ccccc2C(=O)N2CCc3c([nH]c4ccc([N+](=O)[O-])cc34)C21 (stereo not drawn) [EV501]
expression of Hsp70 and Src and Akt (client proteins of Hsp70/Hsp90) ([1]; Western blot (FIG. 21)): decrease
inhibition at 0.5 µM (lung cancer cell): > 65%
cancer cell survival inhibitory activity (cancer cell): as excellent as EV507
anchorage-independent colony formation (lung cancer cells): effectively inhibited

Structure (SMILES): C=C(C)CN1c2ccccc2C(=O)N2CCc3c([nH]c4c([N+](=O)[O-])cc([N+](=O)[O-])cc34)C21 (stereo not drawn) [EV504]
melting point: 175 to 177 °C
cancer cell survival inhibitory activity (cancer cell): as excellent as EV507

Structure (SMILES): CN1c2ccc(Cl)cc2C(=O)N2CCc3c([nH]c4ccccc34)C21 (stereo not drawn) [EV304]
lung cancer cell death (cell viability) (H1299 lung cancer cells): excellent effects

Structure (SMILES): CN1c2ccccc2C(=O)N2CCc3c([nH]c4ccc(Cl)cc34)C21 (stereo not drawn) [EV407]
lung cancer cell death (cell viability) (H1299 lung cancer cells): excellent effects

Structure (SMILES): Cc1ccc2[nH]c3c(c2c1)CCN1C(=O)c2ccccc2N(C)C31 (stereo not drawn) [EV406]
lung cancer cell death (cell viability) (H1299 lung cancer cells): excellent effects

Structure (SMILES): CCCOc1ccc2[nH]c3c(c2c1)CCN1C(=O)c2ccccc2N(C)C31 (stereo not drawn) [EV413]
lung cancer cell death (cell viability) (H1299 lung cancer cells): excellent effects

melting point: 230 to 232 °C
Structure (SMILES): C#CCN1c2ccccc2C(=O)N2CCc3c([nH]c4ccc(O)cc34)C21 (stereo not drawn) [EV508]
inhibition at 0.5 µM (lung cancer cell): > 65%
cancer cell survival inhibitory activity (cancer cell): as excellent as EV507
anchorage-independent colony formation (lung cancer cells): effectively inhibited

Structure (SMILES): CN1c2ccccc2C(=O)N2CCc3c([nH]c4ccc([N+](=O)[O-])cc34)C21 (stereo not drawn) [EV401]
lung cancer cell death (cell viability) (H1299 lung cancer cells): excellent effects

Structure (SMILES): C=CCN1c2ccccc2C(=O)N2CCc3c([nH]c4ccccc34)C21 (stereo not drawn) [EV206, 14N-Allyl Evodiamine]
expression of Hsp70 protein and Hsp70/Hsp90 client proteins (Akt, Src, and MEK) [1]: clear reduction
growth-inhibitory effect [2]: excellent growth-inhibitory effects
lung cancer cell death (cell viability) (H1299 lung cancer cells): excellent effects
formation of colonies under anchorage-dependent (adherent) conditions [3]: significantly inhibited

melting point: 261 to 262 °C
Structure (SMILES): C=C(C)CN1c2ccccc2C(=O)N2CCc3c([nH]c4ccc([N+](=O)[O-])cc34)C21 (stereo not drawn) [EV502]
inhibition at 0.5 µM (lung cancer cell): > 50%

Structure (SMILES): CN1c2ccc(F)cc2C(=O)N2CCc3c([nH]c4ccccc34)C21 (stereo not drawn) [EV301]
lung cancer cell death (cell viability) (H1299 lung cancer cells): excellent effects

Structure (SMILES): CN1c2ccccc2C(=O)N2CCc3c([nH]c4c([N+](=O)[O-])cc([N+](=O)[O-])cc34)C21 (stereo not drawn) [EV402]
lung cancer cell death (cell viability) (H1299 lung cancer cells): excellent effects

Structure (SMILES): CC#CCN1c2ccccc2C(=O)N2CCc3c([nH]c4ccccc34)C21 (stereo not drawn) [EV219]
lung cancer cell death (cell viability) (H1299 lung cancer cells): excellent effects

Structure (SMILES): C#CCN1c2ccccc2C(=O)N2CCc3c([nH]c4ccccc34)C21 (stereo not drawn) [EV205, 14N-propagyl Evodiamine]
lung cancer cell death (cell viability) (H1299 lung cancer cells): excellent effects

Structure (SMILES): CN1c2ccc(Br)cc2C(=O)N2CCc3c([nH]c4ccccc34)C21 (stereo not drawn) [EV306]
lung cancer cell death (cell viability) (H1299 lung cancer cells): excellent effects

Structure (SMILES): C#CCN1c2ccccc2C(=O)N2CCc3c([nH]c4c([N+](=O)[O-])cc([N+](=O)[O-])cc34)C21 (stereo not drawn) [EV506]
inhibition at 0.5 µM (lung cancer cell): > 50%
melting point: 232 to 234 °C

Structure (SMILES): CN1c2ccc([N+](=O)[O-])cc2C(=O)N2CCc3c([nH]c4ccccc34)C21 (stereo not drawn) [EV303]
lung cancer cell death (cell viability) (H1299 lung cancer cells): excellent effects

Structure (SMILES): CN1c2ccccc2C(=O)N2CCc3c([nH]c4ccc(O)cc34)C21 (stereo not drawn) [EV408]
expression of Hsp70 protein and Hsp70/Hsp90 client proteins (Akt, Src, and MEK) [1]: clear reduction
growth-inhibitory effect [2]: excellent growth-inhibitory effects
lung cancer cell death (cell viability) (H1299 lung cancer cells): excellent effects
formation of colonies under anchorage-dependent (adherent) conditions [3]: significantly inhibited

Structure (SMILES): Cc1ccc2c(c1)C(=O)N1CCc3c([nH]c4ccccc34)C1N2C (stereo not drawn) [EV307]
lung cancer cell death (cell viability) (H1299 lung cancer cells): excellent effects

Structure (SMILES): CN1c2ccc(I)cc2C(=O)N2CCc3c([nH]c4ccccc34)C21 (stereo not drawn) [EV310]
lung cancer cell death (cell viability) (H1299 lung cancer cells): excellent effects

melting point: 211 to 213 °C
Structure (SMILES): C=C(C)CN1c2ccccc2C(=O)N2CCc3c([nH]c4ccc(O)cc34)C21 (stereo not drawn) [EV509]
inhibition at 0.5 µM (lung cancer cell): > 65%
cancer cell survival inhibitory activity (cancer cell): as excellent as EV507
anchorage-independent colony formation (lung cancer cells): effectively inhibited

Structure (SMILES): C=C(C)CN1c2ccccc2C(=O)N2CCc3c([nH]c4ccccc34)C21 (stereo not drawn) [EV218, 14N-(2-methyl)allyl evodiamine]
lung cancer cell death (cell viability) (H1299 lung cancer cells): excellent effects

Structure (SMILES): COc1ccc2c(c1)C(=O)N1CCc3c([nH]c4ccccc34)C1N2C (stereo not drawn) [EV302]
lung cancer cell death (cell viability) (H1299 lung cancer cells): excellent effects

Structure (SMILES): CC(C)=CCN1c2ccccc2C(=O)N2CCc3c([nH]c4ccccc34)C21 (stereo not drawn) [EV217]
lung cancer cell death (cell viability) (H1299 lung cancer cells): excellent effects

From patent US20240140949A1, “ANTI-CANCER PHARMACEUTICAL COMPOSITION FOR TARGETING HEAT SHOCK PROTEIN 70, CONTAINING INDOLOQUINAZOLIDINE ALKALOID” (SEOUL NATIONAL UNIVERSITY R & DB FOUNDATION, priority 2021, published 2024)
